# Square brackets hold non-standard residues; d marks the D form. Ends that are not written are not given here.
# Experiments:
# [1] = test system: Sprague-Dawley albino rats, light-induced photoreceptor cell death; format: in vivo
# Description: The aim of this study was to investigate the dose effect of XG-102 on light-induced photoreceptor cell death.
# Test item (XG-102: 30 mg/ml, 3 mg/ml, and 0.3 mg/ml) and vehicle (0.9% NaCl) were administered by intravitreal injection in right eyes the day before induction. The reference (Phenyl-N-test-Butylnitrone (PBN) (50 mg/kg)) and vehicle were intraperitoneally injected 30 min before induction then, 3 times during 12 hours of light exposition, then once after induction. Animals were placed in constant light (7000 lux) for 24 h. Electroretinograms (ERG) were recorded before light treatment and on days 9, 16 and 23 after induction. Eyes were then taken for histology and outer nuclear layer (ONL) thickness assessment. The table below summarizes the allocation of animals in treatment groups:
# For the intravitreal injection animals were anesthetized by intramuscular injection of a mixture of xylazine/ketamine. Test item (5 μl) and vehicle (5 μl) were injected in the right eye. The injection was performed under an operating microscope in the supratemporal area at pars plana using a 33G-needle mounted on a 50 μl Hamilton. The filled syringe was mounted into the UltraMicroPump III to achieve accurate injection in microliter range. Reference and vehicle were injected intraperitoneally at a dose volume of 2.5 ml/kg using a 30G-needle mounted on a 1 ml-syringe.
# Light Exposure: The rats that had been dark-adapted overnight were exposed for 24 hours to a continuous white fluorescent light (7000 lx) in clear plastic cages. Each cage contained one rat. After exposure, the rats returned to rearing cyclic light conditions.
# ERG was recorded before induction and 7, 14 and 21 days after cessation of exposure (Days 9, 16 and 23) on right eyes of dark-adapted and anesthezied animals. The latency times (for a- and b-wave) and the a-wave and b-wave amplitudes were measured for each ERG; the latency times were expressed as millisecond and the a-wave and b-wave as a percentage of the baseline value obtained before light exposure. 15 min before measurement 10 μl Mydriaticum® (0.5% tropicamide) were instilled for pupillary dilatation.
# Measurement of the ONL Thickness: After ERG testing, animal was euthanized by an overdose of pentobarbital and the right eyes were enucleated, fixed and embedded in paraffin. Sections (5 μm thick) were performed along the vertical meridian and stained with Trichrome-Masson. The vertical meridian included the optic nerve.
# [2] = test system: TC-3 cell cultures; assay: Cellular import of fluorescein labeled TAT and TAT-IB1(s) peptides; format: cell-based; conditions: labeled peptides 1 μM
# Description: The ability of the L- and D-enantiomeric forms of TAT and TAT-IB1(s) peptides (“TAT-IB peptides”) to enter cells was evaluated. L-TAT, D-TAT, L-TAT-IB1(s), and D-TAT-IB1(s) peptides [SEQ ID NOs: 5, 6, 9 and 12, respectively] were labeled by N-terminal addition of a glycine residue conjugated to fluorescein. Labeled peptides (1 μM) were added to TC-3 cell cultures, which were maintained as described in Example 3. At predetermined times cells were washed with PBS and fixed for five minutes in ice-cold methanol-acetone (1:1) before being examined under a fluorescence microscope. Fluorescein-labeled BSA (1 μM, 12 moles/mole BSA) was used as a control.
# Little to no signal was present at 48 hours.
# Fluorescent signals from these all-D retro-inverso peptides were still very strong 1 week later, and the signal was only slightly diminished at 2 weeks post treatment.
# [3] = test system: TC-3 cells; assay: IL-1 induced pancreatic beta-cell death; format: cell-based; conditions: one single addition 1 μM
# Description: Inhibition of IL-1 induced pancreatic beta-cell death by the D-TAT-IB1(s) peptide was analyzed. TC-3 cells were incubated as described above for 30 minutes with one single addition of the indicated peptides (1, μM), then IL-1 (10 ng/ml) was added.
# Apoptotic cells were then counted after two days of incubation with IL-1 by use of Propidium Iodide and Hoechst 33342 nuclear staining. A minimum of 1,000 cells were counted for each experiment. Standard Error of the Means (SEM) are indicated, n=5.
# Long term inhibition of IL-1P induced cell-death by the D-TAT-IB1 peptide was also analyzed. TC-3 cells were incubated as above for 30 minutes with one single addition of the indicated peptides (1 μM), then IL-1 (10 ng/ml) was added, followed by addition of the cytokine every two days. Apoptotic cells were then counted after 15 days of incubation with IL-1 by use of propidium iodide and Hoechst 33342 nuclear staining. […] A minimum of 1.000 cells were counted for each experiment.
# [4] = test system: recombinant JNK1, JNK2 and JNK3; assay: Solid phase kinase assay, phosphorylation of c-Jun, ATF2 and Elk1; format: biochemical; conditions: dose response 0-25 μM
# Description: The effects of the peptides on JNKs-mediated phosphorylation of their target transcription factors were investigated in vitro. Recombinant and non activated JNK1, JNK2 and JNK3 were produced using a TRANSCRIPTION AND TRANSLATION rabbit reticulocyte lysate kit (Promega) and used in solid phase kinase assays with c-Jun, ATF2 and Elk1, either alone or fused to glutathione-S-transferase (GST), as substrates. Dose response studies were performed wherein L-TAT or L-TAT-IB1(s) peptides (0-25 μM) were mixed with the recombinant JNK1, JNK2, or JNK3 kinases in reaction buffer (20 mM Tris-acetate, 1 mM EGTA, 10 mM p-nitrophenyl-phosphate (pNPP), 5 mM sodium pyrophosphate, 10 mM p-glycerophosphate, 1 mM dithiothreitol) for 20 minutes. The kinase reactions were then initiated by the addition of 10 mM MgCl2 and 5 pCi ^33P-dATP and 1 μg of either GST-Jun (aa 1-89), GST-AFT2 (aa 1-96) or GST-ELK1 (aa 307-428). GST-fusion proteins were purchased from Stratagene (La Jolla, Calif.).
# Ten μL of glutathione-agarose beads were also added to the mixture. Reaction products were then separated by SDS-PAGE on a denaturing 10% polyacrylamide gel. Gels were dried and subsequently exposed to X-ray films (Kodak). […] The ability of D-TAT, D-TAT-IB1(s) and L-TAT-IB1(s) peptides (0-250 μM dosage study) to inhibit GST-Jun (aa 1-73) phosphorylation by recombinant JNK1, JNK2, and JNK3 by were analyzed as described above. […]
# [5] = test system: JNK signaling in HeLa cells (GAL-Jun, MKK4/MKK7); assay: GAL4 luciferase reporter of c-Jun activation; format: cell-based; conditions: 1 μM, 16 hours
# Description: To determine whether the cell-permeable peptides as defined herein could block JNK signaling in vivo, we used a heterologous GAL4 system. HeLa cells, cultured as described above, were co-transfected with the 5×GAL-LUC reporter vector together with the GAL-Jun expression construct (Stratagene) comprising the activation domain of c-Jun (amino acids 1-89) linked to the GAL4 DNA-binding domain. Activation of JNK was achieved by the co-transfection of vectors expressing the directly upstream kinases MKK4 and MKK7 (see Whitmarsh et al., Science 285: 1573 (1999)). Briefly, 3×10^5 cells were transfected with the plasmids in 3.5-cm dishes using DOTAP (Boehringer Mannheim) following instructions from the manufacturer. For experiments involving GAL-Jun, 20 ng of the plasmid was transfected with 1 μg of the reporter plasmid pFR-Luc (Stratagene) and 0.5 μg of either MKK4 or MKK7 expressing plasmids. Three hours following transfection, cell media were changed and TAT and TAT-IB1(s) peptides (1 μM) were added. The luciferase activities were measured 16 hours later using the “Dual Reporter System” from Promega after normalization to protein content. […] Because HeLa cells express JNK1 and JNK2 isoforms but not JNK3, we transfected cells with JNK3.
# [6] = test system: AP-1 DNA binding complex, HeLa cell nuclear extracts; assay: Gel retardation assay with AP-1 probe; format: cell-based; conditions: in the presence of TNF-alpha
# [7] = test system: JNKs from UV-light irradiated HeLa cells or IL-1 treated PTC cells; assay: c-Jun phosphorylation by activated JNKs pulled down with GST-Jun; format: biochemical; conditions: 25 μM
# Description: The effects of the L-TAT or L-TAT-IB1(s) peptides as defined herein on JNKs activated by stressful stimuli were evaluated using GST-Jun to pull down JNKs from UV-light irradiated HeLa cells or IL-1 treated PTC cells. PTC cells were cultured as described above. HeLa cells were cultured in DMEM medium supplemented with 10% Fetal Calf Serum, 100 μg/mL Streptomycin, 100 units/ml Penicillin and 2 mM Glutamine. One hour prior to being used for cell extract preparation, PTC cells were activated with IL-1 as described above, whereas HeLa cells were activated by UV-light (20 J/m^2). Cell extracts were prepared from control, UV-light irradiated HeLa cells and IL-1 treated TC-3 cells by scraping the cell cultures in lysis buffer (20 mM Tris-acetate, 1 mM EGTA, 1% Triton X-100, 10 mM p-nitrophenyl-phosphate, 5 mM sodium pyrophosphate, 10 mMP-glycerophosphate, 1 mM dithiothreitol). Debris was removed by centrifugation for five minutes at 15,000 rpm in an SS-34 Beckman rotor. One-hundred μg extracts were incubated for one hour at room temperature with one μg GST-jun (amino acids 1-89) and 10 μL of glutathione-agarose beads (Sigma). Following four washes with the scraping buffer, the beads were resuspended in the same buffer supplemented with L-TAT or L-TAT-IB1(s) peptides (25 μM) for 20 minutes. […]
molecule,measurement,setting,value
"CC(C)(C)[N+]([O-])=Cc1ccccc1 [PBN, Phenyl-N-tert-Butylnitrone, reference compound]",decrease of mean ONL thickness vs untreated eyes,"[1]; PBN i.p., Day 23",16%
same,"ERG B-wave amplitude, percent of the baseline, Mean ± SD","[1]; rat, in vivo, ip, 50 mg/kg",100 ± 18.6%
"Fluorescein-labeled BSA: fluorescein labeled bovine serum albumin (1 μM BSA, 12 moles fluorescein/mole BSA), control",entry into cells,[2],did not enter the cells
GRKKRRQRRRPPRPKRPTTLNLFPQVPRSQD (Description of sequence: L-TAT-IB1 (s) (see Table 1)) [L-TAT-IB1(s)],long term (15 day) protection from IL-1 induced cell-death,[3]; IL-1 every two days,"but not L-TAT-IB1(s), was able to confer long term (15 day) protection"
same,"peptide dose giving nearly complete inhibition of c-Jun, ATF2 and Elk1 phosphorylation by JNKs",[4],2.5 µM
same,activation of c-Jun following MKK4 and MKK7 mediated activation of JNK (luciferase),[5],blocked activation of c-Jun following MKK4 and MKK7 mediated activation of JNK
same,formation of the AP-1 DNA binding complex,[6],decrease the formation of the AP-1 DNA binding complex
same,prevention of phosphorylation of c-Jun by activated JNKs,[7],efficiently prevented phosphorylation of c-Jun by activated JNKs
TDQSRPVQPFLNLTTPRKPRYTDPPRRRQRRKKRG ([dT][dD][dQ][dS][dR][dP][dV][dQ][dP][dF][dL][dN][dL][dT][dT][dP][dR][dK][dP][dR][dY][dT][dD][dP][dP][dR][dR][dR][dQ][dR][dR][dK][dK][dR]G) [D-TAT-IB1],IL-1 induced apoptosis after two days,[3]; IL-1 10 ng/ml,decreased IL-1 induced apoptosis to a similar extent as L-TAT-IB peptides
